Measurements published in patent US20250243171A1, “QUINAZOLINE COMPOUNDS FOR TREATMENT OF DISEASE” (Arthrosi Therapeutics, Inc., priority 2021, published 2025).

Experiments:
Assay in all cases: EC50 assay: Ba/F3 stable cell proliferation (CCK-8, 72 h)
Type in all cases: cell-based
Ba/F3 stable cells [1] = target: T1, Ba/F3 stable cells (Homo sapiens, UniProt P04626, DUP772-775, cells depend on it); conditions: Ba/F3-HER2 A775-G776insYVMA cells
T1 construct: EC50 Ba/F3-HER2 A775-G776insYVMA; other: Ba/F3-HER2 A775-G776insYVMA cells, 72 h, CCK-8
How it was run: (§1)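 Ba/F3 stable cells were seeded at 4,000 cells/90 μL/well in 96-well plates and held 2 h at 37° C. in 5% CO2, then given 10 μL of serially titrated compound (0.1% DMSO final). After 72 h at 37° C., CCK-8 reagent was added for 4 hours and absorbance read at 450 nm to derive EC50.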

Ba/F3 stable cells [2] = target: T2, Ba/F3 stable cells (Homo sapiens, UniProt P00533, DUP767-769, cells depend on it); conditions: Ba/F3-EGFR V769-D770insASV cells
T2 construct: EC50 Ba/F3-EGFR V769-D770insASV; other: Ba/F3-EGFR V769-D770insASV cells, 72 h, CCK-8
How it was run: as §1

Ba/F3 stable cells [3] = target: T3, Ba/F3 stable cells (Homo sapiens, UniProt P00533, DUP768-770, cells depend on it); conditions: Ba/F3-EGFR D770-N771insSVD cells
T3 construct: EC50 Ba/F3-EGFR D770-N771insSVD; other: Ba/F3-EGFR D770-N771insSVD cells, 72 h, CCK-8
How it was run: as §1

Ba/F3 stable cells [4] = target: T4, Ba/F3 stable cells (Homo sapiens, UniProt P00533, DUP771-773, cells depend on it); conditions: Ba/F3-EGFR H773-V774insNPH cells
T4 construct: EC50 Ba/F3-EGFR H773-V774insNPH; other: Ba/F3-EGFR H773-V774insNPH cells, 72 h, CCK-8
How it was run: as §1

Ba/F3 stable cells [5] = target: T5, Ba/F3 stable cells (Homo sapiens, UniProt P00533, T790M/L858R, cells depend on it); conditions: Ba/F3-EGFR L858R-T790M cells
T5 construct: EC50 Ba/F3-EGFR L858R-T790M; other: Ba/F3-EGFR L858R-T790M cells, 72 h, CCK-8
How it was run: as §1

Ba/F3 stable cells [6] = target: T6, Ba/F3 stable cells (Homo sapiens, UniProt P00533, INS763FQEA, cells depend on it); conditions: Ba/F3-EGFR A763-Y764insFQEA cells
T6 construct: EC50 Ba/F3-EGFR A763-Y764insFQEA; other: Ba/F3-EGFR A763-Y764insFQEA cells, 72 h, CCK-8
How it was run: as §1

T5 sequence (P00533 whole entry T790M/L858R): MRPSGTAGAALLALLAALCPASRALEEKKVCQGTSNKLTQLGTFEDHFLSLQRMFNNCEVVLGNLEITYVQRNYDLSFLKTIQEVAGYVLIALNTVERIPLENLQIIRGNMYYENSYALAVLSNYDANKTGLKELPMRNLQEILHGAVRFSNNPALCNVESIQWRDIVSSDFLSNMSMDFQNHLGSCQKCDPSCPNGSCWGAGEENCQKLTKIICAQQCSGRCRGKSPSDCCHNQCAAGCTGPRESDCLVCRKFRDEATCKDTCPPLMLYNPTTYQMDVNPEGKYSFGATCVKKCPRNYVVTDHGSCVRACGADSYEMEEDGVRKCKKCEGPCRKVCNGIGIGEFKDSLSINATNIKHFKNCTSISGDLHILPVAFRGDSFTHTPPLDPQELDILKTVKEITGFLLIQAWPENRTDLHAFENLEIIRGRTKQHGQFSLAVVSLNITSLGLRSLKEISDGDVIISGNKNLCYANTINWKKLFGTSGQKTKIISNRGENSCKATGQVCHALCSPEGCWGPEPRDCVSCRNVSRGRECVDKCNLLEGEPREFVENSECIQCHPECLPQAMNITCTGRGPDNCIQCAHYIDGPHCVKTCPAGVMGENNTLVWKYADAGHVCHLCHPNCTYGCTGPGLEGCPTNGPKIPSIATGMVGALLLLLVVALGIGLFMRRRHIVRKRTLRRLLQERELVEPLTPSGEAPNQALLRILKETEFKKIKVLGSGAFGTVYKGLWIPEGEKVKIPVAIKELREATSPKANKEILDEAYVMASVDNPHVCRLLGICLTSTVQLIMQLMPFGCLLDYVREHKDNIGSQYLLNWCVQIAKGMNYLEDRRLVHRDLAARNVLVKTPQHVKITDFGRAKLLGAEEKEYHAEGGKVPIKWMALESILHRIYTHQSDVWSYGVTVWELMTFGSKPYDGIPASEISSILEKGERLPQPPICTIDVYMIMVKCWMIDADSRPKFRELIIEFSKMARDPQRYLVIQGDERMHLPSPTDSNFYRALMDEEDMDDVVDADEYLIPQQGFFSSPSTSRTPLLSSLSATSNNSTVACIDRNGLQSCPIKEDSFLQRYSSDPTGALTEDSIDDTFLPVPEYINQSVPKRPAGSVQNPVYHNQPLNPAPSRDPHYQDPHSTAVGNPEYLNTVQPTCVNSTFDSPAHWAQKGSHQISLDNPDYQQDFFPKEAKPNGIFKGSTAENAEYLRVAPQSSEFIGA
T6 sequence (P00533 with tags, fused parts or gaps INS763FQEA): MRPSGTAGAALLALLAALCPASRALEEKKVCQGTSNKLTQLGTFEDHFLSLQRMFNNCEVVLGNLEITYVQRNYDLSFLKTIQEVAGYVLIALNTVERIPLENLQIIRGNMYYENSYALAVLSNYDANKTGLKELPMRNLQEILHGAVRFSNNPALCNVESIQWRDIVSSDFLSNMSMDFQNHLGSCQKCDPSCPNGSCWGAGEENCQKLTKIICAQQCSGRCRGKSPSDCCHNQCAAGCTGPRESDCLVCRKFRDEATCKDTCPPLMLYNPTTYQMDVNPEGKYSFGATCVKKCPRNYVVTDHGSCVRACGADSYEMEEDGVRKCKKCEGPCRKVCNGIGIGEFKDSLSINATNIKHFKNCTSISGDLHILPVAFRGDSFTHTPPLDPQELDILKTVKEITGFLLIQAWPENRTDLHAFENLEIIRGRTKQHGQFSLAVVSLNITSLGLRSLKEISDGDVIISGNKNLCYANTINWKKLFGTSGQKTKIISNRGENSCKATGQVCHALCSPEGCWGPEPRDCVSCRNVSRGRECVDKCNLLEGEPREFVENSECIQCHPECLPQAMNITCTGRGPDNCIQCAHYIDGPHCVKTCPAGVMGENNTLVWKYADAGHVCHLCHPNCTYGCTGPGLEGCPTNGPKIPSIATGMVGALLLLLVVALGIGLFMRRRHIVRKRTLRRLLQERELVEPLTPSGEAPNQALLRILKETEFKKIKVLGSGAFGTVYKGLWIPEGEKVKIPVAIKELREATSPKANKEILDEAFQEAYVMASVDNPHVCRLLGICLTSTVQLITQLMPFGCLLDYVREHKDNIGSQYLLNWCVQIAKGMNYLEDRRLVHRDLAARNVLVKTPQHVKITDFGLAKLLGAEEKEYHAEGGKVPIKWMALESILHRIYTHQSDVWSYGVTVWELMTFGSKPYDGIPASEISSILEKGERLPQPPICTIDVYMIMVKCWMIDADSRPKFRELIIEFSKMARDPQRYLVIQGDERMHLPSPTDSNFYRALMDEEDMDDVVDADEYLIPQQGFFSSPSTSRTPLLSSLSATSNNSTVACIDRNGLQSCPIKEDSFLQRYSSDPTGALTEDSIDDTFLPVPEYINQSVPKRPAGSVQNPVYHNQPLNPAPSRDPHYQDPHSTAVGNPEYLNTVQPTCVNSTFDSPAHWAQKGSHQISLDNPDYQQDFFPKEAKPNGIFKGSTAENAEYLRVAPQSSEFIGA
T3 sequence (P00533 with tags, fused parts or gaps DUP768-770): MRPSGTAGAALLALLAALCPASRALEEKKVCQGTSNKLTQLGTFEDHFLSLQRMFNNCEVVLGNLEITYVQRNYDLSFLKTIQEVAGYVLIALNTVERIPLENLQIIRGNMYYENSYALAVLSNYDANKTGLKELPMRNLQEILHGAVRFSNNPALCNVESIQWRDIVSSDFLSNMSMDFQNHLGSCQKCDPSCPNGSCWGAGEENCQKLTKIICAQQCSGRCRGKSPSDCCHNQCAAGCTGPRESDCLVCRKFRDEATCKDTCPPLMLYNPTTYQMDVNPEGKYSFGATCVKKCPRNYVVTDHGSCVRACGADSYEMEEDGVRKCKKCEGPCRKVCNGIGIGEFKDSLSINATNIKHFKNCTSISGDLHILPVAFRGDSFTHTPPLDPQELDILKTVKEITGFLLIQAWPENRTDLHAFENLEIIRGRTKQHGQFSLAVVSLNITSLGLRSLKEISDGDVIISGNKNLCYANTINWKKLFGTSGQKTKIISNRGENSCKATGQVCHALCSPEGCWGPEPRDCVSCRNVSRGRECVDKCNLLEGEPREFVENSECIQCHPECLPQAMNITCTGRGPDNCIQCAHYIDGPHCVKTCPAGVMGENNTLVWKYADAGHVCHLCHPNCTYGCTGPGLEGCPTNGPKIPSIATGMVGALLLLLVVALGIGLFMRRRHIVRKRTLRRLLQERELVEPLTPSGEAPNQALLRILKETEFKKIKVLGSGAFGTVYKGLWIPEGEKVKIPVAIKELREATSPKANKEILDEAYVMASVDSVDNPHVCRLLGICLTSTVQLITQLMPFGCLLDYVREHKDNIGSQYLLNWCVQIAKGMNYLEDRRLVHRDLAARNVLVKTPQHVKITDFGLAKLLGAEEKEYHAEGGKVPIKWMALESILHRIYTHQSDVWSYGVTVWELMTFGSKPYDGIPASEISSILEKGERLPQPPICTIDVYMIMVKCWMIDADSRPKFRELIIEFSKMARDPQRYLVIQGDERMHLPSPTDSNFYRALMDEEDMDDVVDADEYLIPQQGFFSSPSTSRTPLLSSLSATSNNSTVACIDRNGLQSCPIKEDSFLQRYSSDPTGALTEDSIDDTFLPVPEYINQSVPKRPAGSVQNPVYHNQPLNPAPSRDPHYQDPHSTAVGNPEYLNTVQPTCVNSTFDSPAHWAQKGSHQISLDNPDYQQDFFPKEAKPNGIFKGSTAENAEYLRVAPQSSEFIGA
T1 sequence (P04626 with tags, fused parts or gaps DUP772-775): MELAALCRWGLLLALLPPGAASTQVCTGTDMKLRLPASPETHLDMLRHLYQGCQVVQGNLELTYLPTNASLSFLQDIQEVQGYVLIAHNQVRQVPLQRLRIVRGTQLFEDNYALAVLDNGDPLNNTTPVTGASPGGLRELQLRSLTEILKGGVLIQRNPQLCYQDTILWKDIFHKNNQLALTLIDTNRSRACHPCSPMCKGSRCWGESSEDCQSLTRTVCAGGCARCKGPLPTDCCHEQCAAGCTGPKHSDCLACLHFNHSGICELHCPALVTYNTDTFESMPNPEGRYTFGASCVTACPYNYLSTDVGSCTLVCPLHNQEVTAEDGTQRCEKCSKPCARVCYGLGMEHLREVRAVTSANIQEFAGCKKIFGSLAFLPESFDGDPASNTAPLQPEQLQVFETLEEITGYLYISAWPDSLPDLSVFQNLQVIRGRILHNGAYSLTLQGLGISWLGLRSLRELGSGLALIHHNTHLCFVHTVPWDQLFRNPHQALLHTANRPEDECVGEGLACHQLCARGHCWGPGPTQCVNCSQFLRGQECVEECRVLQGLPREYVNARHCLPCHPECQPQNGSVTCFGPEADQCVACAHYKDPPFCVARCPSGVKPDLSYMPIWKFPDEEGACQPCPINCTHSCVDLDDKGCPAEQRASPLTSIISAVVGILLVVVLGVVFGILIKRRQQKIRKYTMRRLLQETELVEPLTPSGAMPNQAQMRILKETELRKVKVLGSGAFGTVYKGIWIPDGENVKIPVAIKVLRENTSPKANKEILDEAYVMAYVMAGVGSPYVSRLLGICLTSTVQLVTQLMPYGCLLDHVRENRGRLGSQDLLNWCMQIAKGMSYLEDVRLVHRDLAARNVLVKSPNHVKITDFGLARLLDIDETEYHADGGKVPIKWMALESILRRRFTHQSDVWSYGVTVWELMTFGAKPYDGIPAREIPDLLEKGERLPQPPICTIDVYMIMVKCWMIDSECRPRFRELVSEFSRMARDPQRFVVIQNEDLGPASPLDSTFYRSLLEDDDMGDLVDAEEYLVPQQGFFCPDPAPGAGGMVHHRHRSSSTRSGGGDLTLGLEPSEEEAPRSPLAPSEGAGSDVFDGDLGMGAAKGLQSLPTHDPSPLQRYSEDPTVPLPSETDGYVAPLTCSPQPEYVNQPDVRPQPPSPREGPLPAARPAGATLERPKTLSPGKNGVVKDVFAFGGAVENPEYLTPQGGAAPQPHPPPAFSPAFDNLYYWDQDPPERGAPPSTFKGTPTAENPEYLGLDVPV

Row | Structure (SMILES) | EC50 (Ba/F3 stable cells [1]) | EC50 (Ba/F3 stable cells [2]) | EC50 (Ba/F3 stable cells [3]) | EC50 (Ba/F3 stable cells [4]) | EC50 (Ba/F3 stable cells [5]) | EC50 (Ba/F3 stable cells [6])
1 | C=CC(=O)N1CCC(Oc2cc3c(NC(C(=O)O)c4cccc(Cl)c4)ncnc3cc2OC)CC1 (stereo not drawn) [Compound 126, 2-((6-((1-acryloylpiperidin-4-yl)oxy)-7-methoxyquinazolin-4-yl)amino)-2-(3-chlorophenyl)acetic acid] | > 1000 nM | > 1000 nM | > 1000 nM | > 1000 nM | > 1000 nM | > 1000 nM
2 | C=CC(=O)N1CCC(Oc2cc3c(NC(C(N)=O)c4cccc(Cl)c4)ncnc3cc2OC)CC1 (stereo not drawn) [Compound 127, 2-((6-((1-acryloylpiperidin-4-yl)oxy)-7-methoxyquinazolin-4-yl)amino)-2-(3-chlorophenyl)acetamide] | > 1000 nM | 200 to 1000 nM | > 1000 nM | > 1000 nM | > 1000 nM | ≤ 200 nM
3 | C=CC(=O)N1CCC(Oc2cc3c(NC(CC(=O)O)c4cccc(Cl)c4)ncnc3cc2OC)CC1 (stereo not drawn) [Compound 129, 3-((6-((1-acryloylpiperidin-4-yl)oxy)-7-methoxyquinazolin-4-yl)amino)-3-(3-chlorophenyl)propanoic acid] | > 1000 nM | > 1000 nM | > 1000 nM | > 1000 nM | > 1000 nM | > 1000 nM
4 | C=CC(=O)N1CCC(Oc2cc3c(Nc4nc5cc(Cl)ccc5o4)ncnc3cc2OC)CC1 [Compound 136, 1-(4-((4-((5-chlorobenzo[d]oxazol-2-yl)amino)-7-methoxyquinazolin-6-yl)oxy)piperidin-1-yl)prop-2-en-1-one] | > 1000 nM | > 1000 nM | > 1000 nM | > 1000 nM | > 1000 nM | 200 to 1000 nM
5 | C=CC(=O)N1CCC(Oc2cc3c(Nc4cccc5cn[nH]c45)ncnc3cc2OC)CC1 [Compound 139, 1-(4-((4-((1H-indazol-7-yl)amino)-7-methoxyquinazolin-6-yl)oxy)piperidin-1-yl)prop-2-en-1-one] | > 1000 nM | > 1000 nM | > 1000 nM | > 1000 nM | > 1000 nM | ≤ 200 nM
6 | C=CC(=O)N1CCC(Oc2cc3c(Nc4ccc5cnccc5c4)ncnc3cc2OC)CC1 [Compound 140, 1-(4-((4-(isoquinolin-6-ylamino)-7-methoxyquinazolin-6-yl)oxy)piperidin-1-yl)prop-2-en-1-one] | > 1000 nM | > 1000 nM | > 1000 nM | > 1000 nM | > 1000 nM | > 1000 nM
7 | C=CC(=O)N1CCC(Oc2cc3c(Nc4ccc5ncccc5c4)ncnc3cc2OC)CC1 [Compound 143, 1-(4-((7-methoxy-4-(quinolin-6-ylamino)quinazolin-6-yl)oxy)piperidin-1-yl)prop-2-en-1-one] | 200 to 1000 nM | ≤ 200 nM | > 1000 nM | 200 to 1000 nM | 200 to 1000 nM | ≤ 200 nM
8 | C=CC(=O)N1CCC(Oc2cc3c(Nc4ccc5nccnc5c4)ncnc3cc2OC)CC1 [Compound 144, 1-(4-((7-methoxy-4-(quinoxalin-6-ylamino)quinazolin-6-yl)oxy)piperidin-1-yl)prop-2-en-1-one] | > 1000 nM | > 1000 nM | > 1000 nM | > 1000 nM | > 1000 nM | 200 to 1000 nM
9 | C=CC(=O)N1CCC(Oc2cc3c(Nc4ccc5ncsc5c4)ncnc3cc2OC)CC1 [Compound 145, 1-(4-((4-(benzo[d]thiazol-6-ylamino)-7-methoxyquinazolin-6-yl)oxy)piperidin-1-yl)prop-2-en-1-one] | > 1000 nM | 200 to 1000 nM | > 1000 nM | 200 to 1000 nM | 200 to 1000 nM | ≤ 200 nM
10 | C=CC(=O)N1CCC(Oc2cc3c(Nc4cccc5cccnc45)ncnc3cc2OC)CC1 [Compound 146, 1-(4-((7-methoxy-4-(quinolin-8-ylamino)quinazolin-6-yl)oxy)piperidin-1-yl)prop-2-en-1-one] | 200 to 1000 nM | ≤ 200 nM | 200 to 1000 nM | 200 to 1000 nM | 200 to 1000 nM | ≤ 200 nM
11 | C=CC(=O)N1CCC(Oc2cc3c(N4CCN(c5cccc(Cl)c5)CC4)ncnc3cc2OC)CC1 [Compound 147, 1-(4-((4-(4-(3-chlorophenyl)piperazin-1-yl)-7-methoxyquinazolin-6-yl)oxy)piperidin-1-yl)prop-2-en-1-one] | > 1000 nM | > 1000 nM | > 1000 nM | > 1000 nM | > 1000 nM | > 1000 nM
12 | C=CC(=O)N1CCC(Oc2cc3c(Nc4ccc5ccccc5c4)ncnc3cc2OC)CC1 [Compound 148, 1-(4-((7-methoxy-4-(naphthalen-2-ylamino)quinazolin-6-yl)oxy)piperidin-1-yl)prop-2-en-1-one] | 200 to 1000 nM | ≤ 200 nM | ≤ 200 nM | ≤ 200 nM | ≤ 200 nM | ≤ 200 nM

Continued, values first:

Row | EC50 (Ba/F3 stable cells [1]) | EC50 (Ba/F3 stable cells [2]) | EC50 (Ba/F3 stable cells [3]) | EC50 (Ba/F3 stable cells [4]) | EC50 (Ba/F3 stable cells [5]) | EC50 (Ba/F3 stable cells [6]) | Structure (SMILES)
13 | 200 to 1000 nM | ≤ 200 nM | > 1000 nM | 200 to 1000 nM | > 1000 nM | ≤ 200 nM | C=CC(=O)N1CCC(Oc2cc3c(NC(CC(N)=O)c4cccc(Cl)c4)ncnc3cc2OC)CC1 (stereo not drawn) [Compound 130, 3-((6-((1-acryloylpiperidin-4-yl)oxy)-7-methoxyquinazolin-4-yl)amino)-3-(3-chlorophenyl)propanamide]
14 | ≤ 200 nM | ≤ 200 nM | ≤ 200 nM | ≤ 200 nM | > 1000 nM | ≤ 200 nM | C=CC(=O)N1CCC(Oc2cc3c(NC(CCO)c4cccc(Cl)c4)ncnc3cc2OC)CC1 (stereo not drawn) [Compound 131, 1-(4-((4-((1-(3-chlorophenyl)-3-hydroxypropyl)amino)-7-methoxyquinazolin-6-yl)oxy)piperidin-1-yl)prop-2-en-1-one]
15 | 200 to 1000 nM | 200 to 1000 nM | 200 to 1000 nM | 200 to 1000 nM | > 1000 nM | ≤ 200 nM | C=CC(=O)N1CCCC(Oc2cc3c(Nc4ccc(Cl)c(Cl)c4F)ncnc3cc2OC)C1 (stereo not drawn) [Compound 132, 1-(3-((4-((3,4-dichloro-2-fluorophenyl)amino)-7-methoxyquinazolin-6-yl)oxy)piperidin-1-yl)prop-2-en-1-one]
16 | ≤ 200 nM | > 1000 nM | > 1000 nM | > 1000 nM | > 1000 nM | 200 to 1000 nM | C=CC(=O)N1CCC(Oc2cc3c(Nc4ccc5c(c4)CCN5S(C)(=O)=O)ncnc3cc2OC)CC1 [Compound 134, 1-(4-((7-methoxy-4-((1-(methylsulfonyl)indolin-5-yl)amino)quinazolin-6-yl)oxy)piperidin-1-yl)prop-2-en-1-one]
17 | 200 to 1000 nM | ≤ 200 nM | 200 to 1000 nM | 200 to 1000 nM | 200 to 1000 nM | ≤ 200 nM | C=CC(=O)N1CCC(Oc2cc3c(Nc4cnc5ccccc5c4)ncnc3cc2OC)CC1 [Compound 135, 1-(4-((7-methoxy-4-(quinolin-3-ylamino)quinazolin-6-yl)oxy)piperidin-1-yl)prop-2-en-1-one]
18 | 200 to 1000 nM | 200 to 1000 nM | > 1000 nM | > 1000 nM | > 1000 nM | ≤ 200 nM | C=CC(=O)N1CCC(Oc2cc3c(Nc4ccc5cn[nH]c5c4)ncnc3cc2OC)CC1 [Compound 137, 1-(4-((4-((1H-indazol-6-yl)amino)-7-methoxyquinazolin-6-yl)oxy)piperidin-1-yl)prop-2-en-1-one]
19 | ≤ 200 nM | ≤ 200 nM | 200 to 1000 nM | 200 to 1000 nM | 200 to 1000 nM | ≤ 200 nM | C=CC(=O)N1CCC(Oc2cc3c(Nc4ccc5cnn(C)c5c4)ncnc3cc2OC)CC1 [Compound 138, 1-(4-((7-methoxy-4-((1-methyl-1H-indazol-6-yl)amino)quinazolin-6-yl)oxy)piperidin-1-yl)prop-2-en-1-one]
20 | 200 to 1000 nM | 200 to 1000 nM | > 1000 nM | 200 to 1000 nM | 200 to 1000 nM | ≤ 200 nM | C=CC(=O)N1CCC(Oc2cc3c(Nc4ccc5cccnc5c4)ncnc3cc2OC)CC1 [Compound 141, 1-(4-((7-methoxy-4-(quinolin-7-ylamino)quinazolin-6-yl)oxy)piperidin-1-yl)prop-2-en-1-one]
21 | ≤ 200 nM | ≤ 200 nM | > 1000 nM | 200 to 1000 nM | 200 to 1000 nM | ≤ 200 nM | C=CC(=O)N1CCC(Oc2cc3c(Nc4ccc5scnc5c4)ncnc3cc2OC)CC1 [Compound 142, 1-(4-((4-(benzo[d]thiazol-5-ylamino)-7-methoxyquinazolin-6-yl)oxy)piperidin-1-yl)prop-2-en-1-one]
